Laboratory results taken from patent US10517926B2, “Oligopeptide having proinflammatory cytokine secretion-inhibiting activity” (Osaka University, priority 2015, dated 2019).

Experiments:
[1] = system: MG6 cells; assay: M1 shift of microglial cells by LPS (FACS); format: cell-based, mouse; settings: MHP1 100 μg/ml, LPS 2 ng/ml, 24 hours; FIG. 8
Description: MG6 cells (mouse-derived microglial cell line) were cultured in a DMEM medium (+4% FBS) containing MHP1 (final concentration: 100 μg/ml) or RANKL protein (Recombinant Murin sRANKL Ligand (Cat No. 315-11): produced by Peprotech) (final concentration: 10 ng/ml), and LPS (final concentration: 2 ng/ml) for 24 hours by a standard method. After culture, the cells were washed with PBS, and Fc receptor blocking was performed using mouse IgG. Thereafter, F4/80-FITC (microglia marker antibody) and CD206-APC (M2 marker antibody) were added, and reacted at 4° C. for 30 minutes in a dark place. After the reaction, the cells were washed with PBS, and the percentage of microglia marker-positive and M2 marker-positive (M2 state) cells, and the percentage of microglia marker-positive and M2 marker-negative (M1 state) cells were measured by FACS analysis (FACSCanto II, produced by BD Biosciences).

[2] = system: cerebral infarction model mice; assay: Osteoclasts after cerebral infarction in vivo (TRAP staining of radius); parameters: species or system mouse; settings: 300 μG i.v. then 336 μg s.c.; radius distal portion, paralyzed side, 48 hours; FIG. 24
Description: Cerebral infarction models were produced in the same manner as in Example 10. Four hours after the production of the cerebral infarction models, 300 μG/150 μL of MHP1 administration solution was administered through the cervical vein. Thereafter, 336 μg was continuously administered by subcutaneous injection using an Alzet pump for 21 hours. Forty-eight hours after the production of the cerebral infarction models, the radius distal portion of the left hand (paralyzed side) was stained with TRAP, and the ratio of the stained region (osteoclast surface) relative to the bone surface was calculated based on the obtained staining images.

[3] = system: osteoclast precursor cells; assay: Osteoclast differentiation, Osteoclast Culture Kit (TRAP and nuclear staining); format: cell-based
Description: Osteoclast Culture Kit V-2 (OSC33, produced by Cosmo Bio Co., Ltd.) was used. According to the manual of the kit, culture of osteoclast precursor cells was started in the presence of M-CSF (final concentration: 50 ng/ml) in the A and B groups, and in the presence of M-CSF (final concentration: 50 ng/ml) and MHP1 (final concentration: 30, 50, or 100 μg/ml) in the C and D groups. Thereafter, 24 hours to 7 days after the start of culture, the A group was cultured in the presence of M-CSF (final concentration: 50 ng/ml), the B group was cultured in the presence of M-CSF (final concentration: 50 ng/ml) and RANKL protein (final concentration: 50 ng/ml), the C group was cultured in the presence of M-CSF (final concentration: 50 ng/ml) and MHP1 (final concentration: 30, 50, or 100 μg/ml), and the D group was cultured in the presence of M-CSF (final concentration: 50 ng/ml), RANKL protein (final concentration: 50 ng/ml), and MHP1 (final concentration: 30, 50, or 100 μg/ml). After culture, the cells were subjected to TRAP staining and nuclear staining according to a standard method.

## LMVYVVKTSIKIPSSHNLMKGGSTKNWSGN (listed as Mus musculus) [MHP1]
[1]
  M1 shift caused by LPS: suppressed
[2]
  increase in the number of TRAP-positive osteoclasts on the bone ridge due to cerebral infarction: suppressed
[3]; M-CSF 50 ng/ml + RANKL protein 50 ng/ml + MHP1 30, 50 or 100 μg/ml, FIG. 13 (a)
  differentiation of osteoclasts promoted by RANKL: inhibited
[3]; with M-CSF 50 ng/ml, MHP1 30, 50 or 100 μg/ml or RANKL protein 50 ng/ml, FIG. 13
  differentiation of osteoclasts by the substance itself: did not occur
